In US12409171B2, “Pharmaceutically active pyrazolo-pyridone modulators of DCN1/2-mediated cullin neddylation” (UNIVERSITY OF KENTUCKY RESEARCH FOUNDATION, priority 2019, dated 2025) one finds EC50 data, which are given here for 24 compounds.

DCN1, sequence (Q96GG9 whole entry): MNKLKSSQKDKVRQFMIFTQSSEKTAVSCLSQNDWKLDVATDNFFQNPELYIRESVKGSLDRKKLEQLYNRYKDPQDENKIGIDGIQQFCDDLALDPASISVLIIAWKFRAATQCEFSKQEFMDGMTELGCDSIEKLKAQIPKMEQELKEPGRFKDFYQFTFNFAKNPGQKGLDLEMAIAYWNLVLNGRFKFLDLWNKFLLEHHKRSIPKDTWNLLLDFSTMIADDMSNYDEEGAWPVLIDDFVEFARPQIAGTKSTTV

The assay deals with DCN1 (Homo sapiens (Human), UniProt Q96GG9). The assay can be described thus: TR-FRET binding assay (biotin-DCN1 / Ac-UBE2M12-AlexaFluor488). The following applies: mean ± SD (n); read-out: DCN1_TRFRET Mean EC50. Here is the method:
• IC50 values were generated using our TR-FRET binding assay and are represented as the mean of three replicates with errors reported as the standard deviation.
The assay cocktail was then incubated for 1 h at room temperature and distributed using a WellMate instrument (Matrix). Compounds to be screened were added to assay plates from DMSO stock solutions by pin transfer using 50SS pins (V&P Scientific). […] All compounds were tested in triplicate or more.
`CCN1C(=O)[C@@H](NC(=O)c2cccc(C(F)(F)F)c2)[C@@H](c2ccc(F)c(OC)c2)c2c(C)nn(-c3ccccc3)c21` [RG-0013996, N-[(4S,5S)-7-ethyl-4-(4-fluoro-3-methoxyphenyl)-3-methyl-6-oxo-1-phenyl-1H,4H,5H,6H,7H-pyrazolo[3,4-b]pyridin-5-yl]-3-(trifluoromethyl)benzamide]: the EC50 was found to be 1270 ± 47 nM.

On to `CCN1C(=O)[C@@H](NC(=O)c2cccc(C(F)(F)F)c2)[C@@H](c2ccc(F)cc2)c2c(CNS(C)(=O)=O)nn(-c3ccccc3)c21` [RG-0014140, N-[(4S,5S)-7-ethyl-4-(4-fluorophenyl)-3-(methanesulfonamidomethyl)-6-oxo-1-phenyl-1H,4H,5H,6H,7H-pyrazolo[3,4-b]pyridin-5-yl]-3-(trifluoromethyl)benzamide], for which the concentration for a half-maximal effect (EC50) was determined as 94.7 ± 19.7 nM.

As to `CC(=O)N1C(=O)[C@@H](NC(=O)c2cccc(C)c2)[C@@H](c2ccc(F)cc2)c2c(C)nn(-c3ccccc3)c21` [RG-0005656, N-[(4S,5S)-7-acetyl-4-(4-fluorophenyl)-3-methyl-6-oxo-1-phenyl-1H,4H,5H,6H,7H-pyrazolo[3,4-b]pyridin-5-yl]-3-methylbenzamide], the EC50 was determined as 5640 ± 827 nM.

As to `CCN1C(=O)[C@@H](NC(=O)c2ccc(C)s2)[C@@H](c2ccc(F)cc2)c2c(C)nn(-c3ccccc3)c21` [RG-0014062, N-[(4S,5S)-7-ethyl-4-(4-fluorophenyl)-3-methyl-6-oxo-1-phenyl-1H,4H,5H,6H,7H-pyrazolo[3,4-b]pyridin-5-yl]-5-methylthiophene-2-carboxamide], the EC50 came out at 2340 ± 77.2 nM.

In the case of `COCN1C(=O)[C@@H](NC(=O)c2cccc(C)c2)[C@@H](c2ccc(F)cc2)c2c(C)nn(-c3ccccc3)c21` [RG-0008859, N-[(4S,5S)-4-(4-fluorophenyl)-7-(methoxymethyl)-3-methyl-6-oxo-1-phenyl-1H,4H,5H,6H,7H-pyrazolo[3,4-b]pyridin-5-yl]-3-methylbenzamide], the 50% effective concentration (EC50) turned out to be 491 ± 25.5 nM.

As to `CCN1C[C@@H](NC(=O)c2cccc(C)c2)[C@@H](c2ccc(F)cc2)c2c(C)nn(-c3ccccc3)c21` [RG-0009507, N-[(4S,5S)-7-ethyl-4-(4-fluorophenyl)-3-methyl-1-phenyl-1H,4H,5H,6H,7H-pyrazolo[3,4-b]pyridin-5-yl]-3-methylbenzamide], the EC50 was more than 36500 nM.

Consider `CCN1C(=O)[C@@H](NC(=O)c2cccc(C(F)(F)F)c2)[C@@H](c2ccc(F)cc2)c2c(C)nn(-c3ccc(C)cc3)c21` [RG-0014036, N-[(4S,5S)-7-ethyl-4-(4-fluorophenyl)-3-methyl-1-(4-methylphenyl)-6-oxo-1H,4H,5H,6H,7H-pyrazolo[3,4-b]pyridin-5-yl]-3-(trifluoromethyl)benzamide], for which the EC50 amounted to 3210 ± 156 nM.

With `CCC(C)n1nc(C)c2c1N(CC)C(=O)[C@@H](NC(=O)c1cccc(C)c1)[C@H]2c1ccc(F)cc1` (stereo partly drawn) [RG-0008861, N-[(4S,5S)-1-(butan-2-yl)-7-ethyl-4-(4-fluorophenyl)-3-methyl-6-oxo-1H,4H,5H,6H,7H-pyrazolo[3,4-b]pyridin-5-yl]-3-methylbenzamide], the 50% effective concentration (EC50) stood at 827 ± 371 nM.

For the compound `CCN1C(=O)[C@@H](NC(=O)c2cccc(OC)c2)[C@@H](c2ccc(F)cc2)c2c(C)nn(-c3ccccc3)c21` [RG-0013979, N-[(4S,5S)-7-ethyl-4-(4-fluorophenyl)-3-methyl-6-oxo-1-phenyl-1H,4H,5H,6H,7H-pyrazolo[3,4-b]pyridin-5-yl]-3-methoxybenzamide], the EC50 is 629 ± 64.8 nM.

Consider `CCCN1C(=O)[C@@H](N(CCC)C(=O)c2cccc(C(F)(F)F)c2)[C@@H](c2ccc(F)cc2)c2c(C)nn(-c3ccccc3)c21` [RG-0009516, N-[(4S,5S)-4-(4-fluorophenyl)-3-methyl-6-oxo-1-phenyl-7-propyl-1H,4H,5H,6H,7H-pyrazolo[3,4-b]pyridin-5-yl]-N-propyl-3-(trifluoromethyl)benzamide], for which the 50% effective concentration (EC50) is more than 36500 nM.

On to `CCN1C(=O)[C@@H](NC(=O)c2cccc(C)c2)[C@@H](c2ccc(F)cc2)c2c(CN)nn(-c3ccccc3)c21` [RG-0009512, N-[(4S,5S)-3-(aminomethyl)-7-ethyl-4-(4-fluorophenyl)-6-oxo-1-phenyl-1H,4H,5H,6H,7H-pyrazolo[3,4-b]pyridin-5-yl]-3-methylbenzamide], for which the EC50 was 171 ± 17.9 nM.

For `Cc1cccc(C(=O)N[C@@H]2C(=O)N(CC(F)(F)F)c3c(c(C)nn3-c3ccccc3)[C@@H]2c2ccc(F)cc2)c1` [RG-0009509, N-[(4S,5S)-4-(4-fluorophenyl)-3-methyl-6-oxo-1-phenyl-7-(2,2,2-trifluoroethyl)-1H,4H,5H,6H,7H-pyrazolo[3,4-b]pyridin-5-yl]-3-methylbenzamide], the EC50 turned out to be 7000 ± 1710 nM.

`CCOC1=Nc2c(c(C)nn2-c2ccccc2)[C@H](c2ccc(F)cc2)[C@@H]1NC(=O)c1cccc(C(F)(F)F)c1` [RG-0009518, N-[(4S,5S)-6-ethoxy-4-(4-fluorophenyl)-3-methyl-1-phenyl-1H,4H,5H-pyrazolo[3,4-b]pyridin-5-yl]-3-(trifluoromethyl)benzamide]: the EC50 is more than 36500 nM.

On to `CCN1C(=O)[C@@H](NC(=O)c2cccc(C(F)(F)F)c2)[C@@H](c2ccc(F)nc2)c2c(CN)nn(-c3ccccc3)c21` [RG-0014006, N-[(4S,5S)-3-(aminomethyl)-7-ethyl-4-(6-fluoropyridin-3-yl)-6-oxo-1-phenyl-1H,4H,5H,6H,7H-pyrazolo[3,4-b]pyridin-5-yl]-3-(trifluoromethyl)benzamide], for which the concentration for a half-maximal effect (EC50) is 135 ± 7 nM.

With `CCN1C(=O)[C@@H](NC(=O)c2cccc(C)c2)[C@@H](c2ccc(F)cc2)c2c(C)nn(-c3ccc(F)cc3)c21` [RG-0008866, N-[(4S,5S)-7-ethyl-1,4-bis(4-fluorophenyl)-3-methyl-6-oxo-1H,4H,5H,6H,7H-pyrazolo[3,4-b]pyridin-5-yl]-3-methylbenzamide], the EC50 came out at 489 ± 18.5 nM.

`CCN1C(=O)[C@@H](NC(=O)c2cccc(C(F)(F)F)n2)[C@@H](c2ccc(F)cc2)c2c(C)nn(-c3ccccc3)c21` [RG-0014061, N-[(4S,5S)-7-ethyl-4-(4-fluorophenyl)-3-methyl-6-oxo-1-phenyl-1H,4H,5H,6H,7H-pyrazolo[3,4-b]pyridin-5-yl]-6-(trifluoromethyl)pyridine-2-carboxamide]: the EC50 was 1110 ± 130 nM.

With `CCN1C(=O)[C@@H](NC(=O)c2cccc(C(F)(F)F)c2)[C@@H](c2ccc(F)cc2)c2c(CNC(=O)OC)nn(-c3ccccc3)c21` [RG-0014054, methyl N-{[(4S,5S)-7-ethyl-4-(4-fluorophenyl)-6-oxo-1-phenyl-5-[3-(trifluoromethyl)benzamido]-1H,4H,5H,6H,7H-pyrazolo[3,4-b]pyridin-3-yl]methyl}carbamate], the concentration for a half-maximal effect (EC50) was 114 ± 4.73 nM.

As for `CCN1C(=O)[C@@H](NC(=O)c2cccc(C(F)(F)F)c2)[C@@H](c2ccc(F)c(C(F)(F)F)c2)c2c(C)nn(-c3ccccc3)c21` [RG-0013990, N-[(4S,5S)-7-ethyl-4-[4-fluoro-3-(trifluoromethyl)phenyl]-3-methyl-6-oxo-1-phenyl-1H,4H,5H,6H,7H-pyrazolo[3,4-b]pyridin-5-yl]-3-(trifluoromethyl)benzamide], the concentration for a half-maximal effect (EC50) was 4810 ± 152 nM.

Turning to `CCN1C(=O)[C@@H](NC(=O)c2cccc(C(F)(F)F)c2)[C@@H](c2ccc(F)cc2)c2c(CN3CCC(F)(F)CC3)nn(-c3ccccc3)c21` [RG-0014146, N-[(4S,5S)-3-[(4,4-difluoropiperidin-1-yl)methyl]-7-ethyl-4-(4-fluorophenyl)-6-oxo-1-phenyl-1H,4H,5H,6H,7H-pyrazolo[3,4-b]pyridin-5-yl]-3-(trifluoromethyl)benzamide], the EC50 worked out at 321 ± 27.3 nM.

Take `Cc1nn(-c2ccccc2)c2c1[C@H](c1ccc(F)cc1)[C@H](NC(=O)c1cccc(C(F)(F)F)c1)C(=O)N2C` [RG-0008885, N-[(4S,5S)-4-(4-fluorophenyl)-3,7-dimethyl-6-oxo-1-phenyl-1H,4H,5H,6H,7H-pyrazolo[3,4-b]pyridin-5-yl]-3-(trifluoromethyl)benzamide]: the EC50 was found to be 943 ± 86.3 nM.

Turning to `CCN1C(=O)[C@@H](NC(=O)c2ccc3c(ccn3C)c2)[C@@H](c2ccc(F)cc2)c2c(C)nn(-c3ccccc3)c21` [RG-0014151, N-[(4S,5S)-7-ethyl-4-(4-fluorophenyl)-3-methyl-6-oxo-1-phenyl-1H,4H,5H,6H,7H-pyrazolo[3,4-b]pyridin-5-yl]-1-methyl-1H-indole-5-carboxamide], the EC50 is 3230 ± 806 nM.

Turning to `CCN1C(=O)[C@@H](NC(=O)c2cccc(C(F)(F)F)c2)[C@@H](c2ccc(F)cc2)c2c(CNC(=O)CCOCCOCCOCCOCCNC(=O)CCCCC3SCC4NC(=O)NC43)nn(-c3ccccc3)c21` (stereo partly drawn) [RG-0014148, N-{[(4S,5S)-7-ethyl-4-(4-fluorophenyl)-6-oxo-1-phenyl-5-[3-(trifluoromethyl)benzamido]-1H,4H,5H,6H,7H-pyrazolo[3,4-b]pyridin-3-yl]methyl}-1-(5-{2-oxo-hexahydro-1H-thieno[3,4-d]imidazol-4-yl}pentanamido)-3,6,9,12-tetraoxapentadecan-15-amide], the EC50 came to 102 ± 15.9 nM.

`CCN1C(=O)[C@@H](NC(=O)c2cccc(C(F)(F)F)c2)[C@@H](c2ccc(F)cc2)c2c(CN3CCC(C)CC3)nn(-c3ccccc3)c21` [RG-0014143, N-[(4S,5S)-7-ethyl-4-(4-fluorophenyl)-3-[(4-methylpiperidin-1-yl)methyl]-6-oxo-1-phenyl-1H,4H,5H,6H,7H-pyrazolo[3,4-b]pyridin-5-yl]-3-(trifluoromethyl)benzamide]: the EC50 was 82.7 ± 7.69 nM.

`CCN1C(=O)[C@@H](NC(=O)c2cc(C)cs2)[C@@H](c2ccc(F)cc2)c2c(C)nn(-c3ccccc3)c21` [RG-0014044, N-[(4S,5S)-7-ethyl-4-(4-fluorophenyl)-3-methyl-6-oxo-1-phenyl-1H,4H,5H,6H,7H-pyrazolo[3,4-b]pyridin-5-yl]-4-methylthiophene-2-carboxamide]: the EC50 was 785 ± 79.6 nM.
